The text below walks through data of patent EP0381656A1, “Alcohol-soluble/water-insoluble oil-containing antifreeze” (FIRST BRANDS CORPORATION, priority 1989, dated 1990).

Like-named read-outs stand apart in the source and are kept apart here.

The nature of data set [1]: Contact angle of polypropylene glycol oil drop on surface-modified metal (Goniometer). The class given is physicochemical.
Assay in data set [2]: as above
In kind it is physicochemical. As to conditions: 0.1 wt. percent surface modifier. From the text:
The effectiveness of a surface modifier compound in modifying the metal surface to be treated with a alcohol-soluble/water-insoluble oil may be evaluated by first treating a metal surface with a selected surface modifier compound. A selected oil droplet is then placed on the modified metal surface and the contact angle measured using a Goniometer.
A series of contact angle measurements were made using for convenience, a polypropylene glycol having a molecular weight of about 1000 as the oil. The contact angle measurement is made by placing the drop of polypropylene glycol on an aluminum surface submerged in a solution having 0.1 wt. percent of a selected surface modifier compound in an aqueous working antifreeze solution having 67% weight percent water, a reserve alkalinity of 50, in borate buffered glycol and having a selected pH of approximately 8. The measured contact angles were as follows:
Several additional surface modifiers were evaluated according to the above procedure to determine their use in wetting the surface of one or more metals commonly employed in automotive cooling systems. The contact angles for aluminum (Al) cast iron (Fe), steel, brass, ASTM solder (ASTM), copper (Cu) and Modine solder (Modine) were measured according to the procedure of this Example 2 using the following surface modifiers: […]

Data set [3] is classed as physicochemical. On the procedure: The "alcohol-soluble/water-insoluble oil" (component (b)) is preferably characterized as having a minimum solubility in the selected alcohol of at least about 0.4 wt. % at 25°C at 1 atm pressure, preferably greater than 1.0 wt, % at 25°C at 1 atm pressure. The "alcohol-soluble/-water-insoluble oil" component is further characterized as being practically insoluble in a 50/50 (weight basis) mixture of the alcohol and water such that the alcohol-soluble/water-insoluble oil has a solubility in the alcohol/water mixture of less than about 0.25 wt. % at 25°C and a pressure of 1 atm, preferably less than about 0.05 at 25°C and a pressure of 1 atm. The solubility of the alcohol-soluble/water-insoluble oil in the alcohol or alcohol/water may be determined by equilibrating a concentration sequence of the oil in the alcohol under stirred conditions. After saturation for 2 hours at the specified temperature, any excess over saturation is estimated from the appearance of the solution. Insolubility is easily detected by visual observation. Formation of two distinctive phases or a turbid suspension indicates substantial insolubility. Turbidity and transmittance can be used to objectively determine if any insoluble material is present as a suspension. For example, when ethylene glycol (EG) or 1/1 mixture of EG/water are used for calibration, they both have a turbidity of 0.7 NTU (Nephelometric Turbidity Unit as measured with the HACH model 2100A turbidimeter) and 100% transmittance (or absorbance=0) measured with filtered light with 470nm wavelength using a Brinkmann PC/600 spectrophotometer. […] When 0.6% hexanol was added to the 1/1 EG/water solution, the turbidity […] to 1.9 NTU and the transmittance decreased to 98% (absorbance of 0.01). When 1% hexanol was added to 1/1 EG/water, the turbidity increased to 3 NTU and the transmittance decreased to 93% (absorbance of 0.03). […]

`CCCCCCCC/C=C\CCCCCCCC(=O)O` [oleic acid]: the CONTACT ANGLES (At 5 Minutes) Modine Solder in data set [1] (0.02% surface modifier) is 68 °; in data set [1] (0.05% surface modifier), 52 °; in data set [1] (0.1% surface modifier), 51 °.
For the compound `CCCCCCCCCCCC(=O)O` [lauric acid], the CONTACT ANGLES (At 5 Minutes) Modine Solder in data set [1] (0.05% surface modifier) worked out at 117 °.
Turning to C₁₅hydroxyalkanesulfonate, in data set [1] (0.1% surface modifier), the CONTACT ANGLES (At 5 Minutes) Modine Solder was 120 °. In data set [2], the CONTACT ANGLES (At 5 Minutes) ASTM Solder came out at 150 °, the CONTACT ANGLES (At 5 Minutes) Al is 145 °, the CONTACT ANGLES (At 5 Minutes) Brass was 57 ° and the CONTACT ANGLES (At 5 Minutes) Cu is 58 °. In addition, in data set [2], the CONTACT ANGLES (At 5 Minutes) Fe is 108 ° and the CONTACT ANGLES (At 5 Minutes) Steel is 160 °.
Turning to “BUO(PO)₅C₃H₆5 Si (CH₃O)₃ [PO functional silane]”, in data set [1] (0.1% surface modifier), the CONTACT ANGLES (At 5 Minutes) Modine Solder came out at 138 °. In data set [2], this compound returned a CONTACT ANGLES (At 5 Minutes) ASTM Solder of 138 °, a CONTACT ANGLES (At 5 Minutes) Al of 139 °, a CONTACT ANGLES (At 5 Minutes) Brass of 63 ° and a CONTACT ANGLES (At 5 Minutes) Cu of 27 °. Also, in data set [2], the CONTACT ANGLES (At 5 Minutes) Fe came out at 90 ° and the CONTACT ANGLES (At 5 Minutes) Steel worked out at 65 °.
Regarding `CCCCCCO` [hexanol], the turbidity in data set [3] (0.6% in 1/1 EG/water) was found to be 1.9 NTU; in data set [3] (1% in 1/1 EG/water) it was 3 NTU. Moreover, in data set [3] (below the solubility limit (5% in EG and 0.2% in 1/1 EG/water)), the turbidity and transmittance entry is recorded as “stayed essentially the same as that of the solvent”.
